Results from US10155775B2, “Substituted amino six-membered saturated heteroalicycles as long-acting DPP-IV inhibitors” (Centaurus Biopharma Co., Ltd., priority 2015, dated 2018).
pIC50: −log10 of the molar value. Read-outs that look alike come from different tables or passages of the source.

Legend:
[1] = target: serum DPP-IV (Mus musculus (Mouse), UniProt P28843); assay: in vivo; conditions: for response vs control in vivo at 30 mg/kg: po, read-out: Specific activity of DPP-IV
[2] = Liver microsome metabolic stability (human); type: in vitro ADME; conditions: human liver microsomes, read-out: Half Life t1/2, liver microsome metabolic stability (converted)
Procedure: (§1) 8 μL human liver microsomes (20 mg/mL), 20 μL NADPH and 368 μL of 0.1 M phosphate buffer were mixed, and then pre-incubated at 37° C. for 5 minutes. 4 μL working solutions (test compounds or positive control) were added, respectively. When pre-incubated at 37° C., 50 μL incubation solutions were taken out at 0, 10, 20, 30, 45 and 60 minute, and thereto was added a 150 μL solution of internal standard ([…]) in acetonitrile. 4 μL rat liver microsomes (20 mg/mL), 10 μL NADPH and 184 μL of 0.1 M phosphate buffer were mixed, and then pre-incubated at 37° C. for 5 minutes. 2 μL working solutions (test compounds or positive control) were added, respectively. When pre-incubated at 37° C., 20 μL incubation solutions were taken out at 0, 10, 20, 30, 45 and 60 minute, and thereto was added a 180 μL solution of internal standard (0.25 M warfarin) in acetonitrile. All samples were vortexed and centrifuged at 4000 rpm for 15 min, and 150 μL supernatants were added to a 96-well plate, and then 5 μL supernatants were detected in LC/MS/MS system. Chromatographic column for analysis was C18 1.7 μm 2.1×50 mm (Waters). Triple quadrupole mass spectrometry (API4000, AB Company) was used in detection. A ratio of the peak area of CT-1225 to that of the internal standard was detected in positive ion mode. […]

[3] = Liver microsome metabolic stability (rat); type: in vitro ADME; conditions: rat liver microsomes, read-out: Half Life t1/2, liver microsome metabolic stability (converted)
Procedure: as §1

[4] = Measuring pharmacokinetics parameters in rats after intragastric administration; type: in vivo; conditions: male, plasma; rat, PO, 5 mg/kg, 20% sulfobutyl-β-cyclodextrin
Procedure: The pharmacokinetic parameters of compounds of the present application were determined by using the following method.
Healthy male adult rats (7-9 weeks old) were used in this study. Each group of animals (3 male rats) was intragastrically administered once at a single dose of 5 mg/kg. The animals in the intragastric administration group were fasted overnight before this study. The fasting time period was from 10 hours before administration to 4 hours after administration.
Blood samples were taken at 0.25, 0.5, 1, 2, 4, 6, 8 and 24 h after administration. The animals were anesthetized with isoflurane using an animal anesthesia machine, and then 0.3 mL whole blood samples were taken from the fundus venous plexus. The blood samples were placed in heparin anticoagulant tubes, and centrifuged for 5 min at 4° C. and 4000 rpm. The resulting plasmas were transferred to centrifuge tubes, and stored at −80° C. until analysis.
Verified LC-MS/MS method was used to analyze the plasma samples. Plasma concentration-time data of animals were analyzed using WinNonlin (Professional Edition, version 6.3; Pharsight Company) software. The non-compartmental model was introduced for concentration analysis.

[5] = target: CYP2D6 (Homo sapiens (Human), UniProt P10635); assay: biochemical; type: in vitro ADME; conditions: human liver microsomes; read-out: IC50 in inhibiting CYP Enzyme System 2D6
Procedure: (§2) IC50 values of compounds of the present application in inhibiting CYP enzyme system were determined by using the following method.
Human liver microsomes frozen at −80° C. in refrigerator were placed on ice for thawing, of which 100 μL was placed in a constant temperature oscillator for incubation (1 hour) at 60° C. and 100 rpm when immediately thawing, and the rest was frozen immediately in refrigerator at −80° C. After one hour, 100 μL inactivated liver microsomes were taken out, and thereto was added 400 μL phosphate buffer, and uniformly mixed to form a 4 mg/mL solution of inactivated liver microsomes. Meanwhile, human liver microsomes frozen at −80° C. in refrigerator were placed on ice for thawing, of which 100 μL was taken out when immediately thawing, and thereto was added 400 μL phosphate buffer, and uniformly mixed to form a 4 mg/mL solution of liver microsomes. The incubation mixtures for a positive control, test compounds and a negative control were prepared according to Table 3 below: […]
(§3) Analyst 1.4.2 or equivalent software was used for data processing. Integrals were detected to ensure that all peaks were properly integrated, and if necessary, adjust integral parameters.
(§4) The quantification of an analyte was defined as a ratio of a peak area of the analyte to that of the internal standard.

[6] = target: CYP3A4 (Homo sapiens (Human), UniProt P08684); assay: IC50 of inhibiting CYP enzyme system, human liver microsomes; type: in vitro ADME
Procedure: as §2
(§5) Human liver microsomes frozen at −80° C. in refrigerator were placed on ice for thawing, of which 100 μL was placed in a constant temperature oscillator for incubation (1 hour) at 60° C. and 100 rpm when immediately thawing, and the rest was frozen immediately in refrigerator at −80° C. After one hour, 100 μL inactivated liver microsomes were taken out, and thereto was added 400 μL phosphate buffer, and uniformly mixed to form a 4 mg/mL solution of inactivated liver microsomes. Meanwhile, human liver microsomes frozen at −80° C. in refrigerator were placed on ice for thawing, of which 100 μL was taken out when immediately thawing, and thereto was added 400 μL phosphate buffer, and uniformly mixed to form a 4 mg/mL solution of liver microsomes. The incubation mixtures for a positive control, test compounds and a negative control were prepared according to Table 3 below:
(§6) The above incubation mixtures were incubated for 5 minutes in a constant temperature oscillator at 37° C. and 100 rpm.
(§7) To 2.5 μL working solution of the test compounds or positive control (the negative control was added to the working solution of the test compounds) were added 91.5 μL the incubation mixtures and 6 μL NADPH solution, and then the reaction was initiated via vortex. The resulting solutions were incubated in a constant temperature oscillator at 37° C. and 100 rpm, and the incubation time was shown in Table 4 below:
(§8) Samples from the terminated reaction were centrifuged at 12000 rpm for 10 minutes, and supernatants were taken out for analysis.
as §3, §4

[7] = target: CYP2C9 (Homo sapiens (Human), UniProt P11712); assay: as above; type: in vitro ADME; conditions: read-out: IC50 in inhibiting CYP Enzyme System 2C9
Procedure: as §2, §5, §6, §7, §8, §3, §4

[8] = target: CYP1A2 (Homo sapiens (Human), UniProt P05177); assay: as above; type: in vitro ADME; conditions: read-out: IC50 in inhibiting CYP Enzyme System 1A2
Procedure: as §2, §5, §6, §7, §8, §3, §4

[9] = target: CYP2B6 (Homo sapiens (Human), UniProt P20813); assay: as above; type: in vitro ADME; conditions: read-out: IC50 in inhibiting CYP Enzyme System 2B6
Procedure: as §2, §5, §6, §7, §8, §3, §4

[10] = target: CYP2C19 (Homo sapiens (Human), UniProt P33261); assay: as above; type: in vitro ADME; conditions: read-out: IC50 in inhibiting CYP Enzyme System 2C19
Procedure: as §2, §5, §6, §7, §8, §3, §4

[11] = target: CYP2C8 (Homo sapiens (Human), UniProt P10632); assay: as above; type: in vitro ADME; conditions: read-out: IC50 in inhibiting CYP Enzyme System 2C8
Procedure: as §2, §5, §6, §7, §8, §3, §4

Sequence of serum DPP-IV (P28843 37-760): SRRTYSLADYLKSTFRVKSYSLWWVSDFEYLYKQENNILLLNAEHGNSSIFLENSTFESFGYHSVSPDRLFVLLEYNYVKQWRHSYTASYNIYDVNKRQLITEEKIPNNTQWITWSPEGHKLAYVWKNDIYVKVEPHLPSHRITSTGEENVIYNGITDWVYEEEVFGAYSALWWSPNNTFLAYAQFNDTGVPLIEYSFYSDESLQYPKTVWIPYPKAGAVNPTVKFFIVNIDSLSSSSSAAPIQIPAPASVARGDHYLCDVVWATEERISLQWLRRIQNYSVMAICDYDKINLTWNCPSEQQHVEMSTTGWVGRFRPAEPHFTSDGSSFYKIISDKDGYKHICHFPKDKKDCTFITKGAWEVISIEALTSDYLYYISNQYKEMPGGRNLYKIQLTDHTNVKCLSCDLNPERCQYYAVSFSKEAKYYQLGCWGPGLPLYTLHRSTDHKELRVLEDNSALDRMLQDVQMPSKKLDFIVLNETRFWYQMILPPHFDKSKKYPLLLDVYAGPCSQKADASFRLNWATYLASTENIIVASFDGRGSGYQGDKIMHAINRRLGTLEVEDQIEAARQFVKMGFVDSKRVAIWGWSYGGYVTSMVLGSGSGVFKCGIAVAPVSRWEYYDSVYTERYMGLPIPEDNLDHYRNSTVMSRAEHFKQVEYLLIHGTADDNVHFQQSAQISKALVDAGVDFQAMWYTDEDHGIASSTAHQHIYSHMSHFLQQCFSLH
Sequence of CYP3A4 (P08684 whole entry): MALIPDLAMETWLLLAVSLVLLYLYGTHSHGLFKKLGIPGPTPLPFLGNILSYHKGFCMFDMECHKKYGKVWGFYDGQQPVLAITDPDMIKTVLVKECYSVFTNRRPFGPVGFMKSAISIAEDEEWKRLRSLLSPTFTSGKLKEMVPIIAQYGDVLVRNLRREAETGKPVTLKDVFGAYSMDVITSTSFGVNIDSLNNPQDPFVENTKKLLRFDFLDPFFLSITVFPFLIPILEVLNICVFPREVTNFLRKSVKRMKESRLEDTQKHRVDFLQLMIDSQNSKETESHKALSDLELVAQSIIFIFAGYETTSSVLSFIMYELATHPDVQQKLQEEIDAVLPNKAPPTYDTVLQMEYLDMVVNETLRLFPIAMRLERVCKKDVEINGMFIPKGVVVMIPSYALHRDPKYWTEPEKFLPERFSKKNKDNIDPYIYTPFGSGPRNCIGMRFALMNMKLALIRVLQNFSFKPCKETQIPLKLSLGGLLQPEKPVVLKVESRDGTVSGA
Sequence of CYP2C9 (P11712 whole entry): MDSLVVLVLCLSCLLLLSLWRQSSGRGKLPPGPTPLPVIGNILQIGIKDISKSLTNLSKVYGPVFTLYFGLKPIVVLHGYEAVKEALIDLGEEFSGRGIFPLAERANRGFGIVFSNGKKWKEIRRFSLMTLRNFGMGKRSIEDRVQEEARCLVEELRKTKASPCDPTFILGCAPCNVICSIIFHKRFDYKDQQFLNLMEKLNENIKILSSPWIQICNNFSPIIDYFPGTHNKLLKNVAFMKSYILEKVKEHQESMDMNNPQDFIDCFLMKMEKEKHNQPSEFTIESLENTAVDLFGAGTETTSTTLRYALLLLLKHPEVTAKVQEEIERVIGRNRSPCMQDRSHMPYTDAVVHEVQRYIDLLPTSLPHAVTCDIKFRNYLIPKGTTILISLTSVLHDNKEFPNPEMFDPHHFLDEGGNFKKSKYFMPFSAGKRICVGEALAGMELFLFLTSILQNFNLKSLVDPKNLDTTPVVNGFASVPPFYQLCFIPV
Sequence of CYP2B6 (P20813 whole entry): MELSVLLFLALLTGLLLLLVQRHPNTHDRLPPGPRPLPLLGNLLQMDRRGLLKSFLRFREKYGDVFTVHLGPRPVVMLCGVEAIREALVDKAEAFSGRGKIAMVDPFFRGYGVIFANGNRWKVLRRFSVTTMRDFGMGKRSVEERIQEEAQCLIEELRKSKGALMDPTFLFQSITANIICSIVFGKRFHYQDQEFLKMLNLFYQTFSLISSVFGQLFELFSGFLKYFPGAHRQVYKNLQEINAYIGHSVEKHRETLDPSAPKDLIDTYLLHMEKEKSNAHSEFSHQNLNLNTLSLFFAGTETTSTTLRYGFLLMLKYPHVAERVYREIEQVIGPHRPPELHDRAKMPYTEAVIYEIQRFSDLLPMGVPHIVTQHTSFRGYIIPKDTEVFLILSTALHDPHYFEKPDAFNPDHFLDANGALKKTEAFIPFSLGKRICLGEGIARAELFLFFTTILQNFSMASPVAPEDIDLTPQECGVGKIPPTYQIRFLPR
Sequence of CYP2D6 (P10635 whole entry): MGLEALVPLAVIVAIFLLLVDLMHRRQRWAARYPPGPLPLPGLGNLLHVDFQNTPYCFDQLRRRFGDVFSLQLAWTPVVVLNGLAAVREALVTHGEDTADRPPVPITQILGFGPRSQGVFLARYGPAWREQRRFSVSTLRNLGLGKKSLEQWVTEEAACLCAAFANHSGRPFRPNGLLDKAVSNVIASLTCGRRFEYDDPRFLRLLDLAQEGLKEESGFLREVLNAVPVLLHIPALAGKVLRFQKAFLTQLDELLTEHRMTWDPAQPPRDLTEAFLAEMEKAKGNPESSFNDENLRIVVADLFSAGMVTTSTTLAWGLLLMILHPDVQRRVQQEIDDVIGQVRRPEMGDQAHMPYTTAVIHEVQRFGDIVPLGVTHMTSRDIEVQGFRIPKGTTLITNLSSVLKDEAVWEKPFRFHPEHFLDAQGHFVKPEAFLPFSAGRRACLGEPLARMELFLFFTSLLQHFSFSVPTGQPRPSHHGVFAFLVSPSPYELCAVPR
Sequence of CYP2C8 (P10632 whole entry): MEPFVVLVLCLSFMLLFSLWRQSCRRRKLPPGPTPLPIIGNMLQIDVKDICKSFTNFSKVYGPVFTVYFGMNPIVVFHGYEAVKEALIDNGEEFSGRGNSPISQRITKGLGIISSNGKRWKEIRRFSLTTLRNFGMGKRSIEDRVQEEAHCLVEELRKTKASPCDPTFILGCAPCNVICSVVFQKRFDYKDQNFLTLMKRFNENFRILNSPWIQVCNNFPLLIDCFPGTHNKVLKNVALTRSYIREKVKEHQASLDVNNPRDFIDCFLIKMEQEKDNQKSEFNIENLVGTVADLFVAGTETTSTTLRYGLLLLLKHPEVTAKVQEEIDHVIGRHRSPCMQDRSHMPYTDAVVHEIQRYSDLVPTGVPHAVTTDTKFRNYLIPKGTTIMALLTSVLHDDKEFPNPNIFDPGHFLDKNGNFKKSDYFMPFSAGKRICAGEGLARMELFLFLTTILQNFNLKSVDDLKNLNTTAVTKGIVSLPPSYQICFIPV
Sequence of CYP2C19 (P33261 whole entry): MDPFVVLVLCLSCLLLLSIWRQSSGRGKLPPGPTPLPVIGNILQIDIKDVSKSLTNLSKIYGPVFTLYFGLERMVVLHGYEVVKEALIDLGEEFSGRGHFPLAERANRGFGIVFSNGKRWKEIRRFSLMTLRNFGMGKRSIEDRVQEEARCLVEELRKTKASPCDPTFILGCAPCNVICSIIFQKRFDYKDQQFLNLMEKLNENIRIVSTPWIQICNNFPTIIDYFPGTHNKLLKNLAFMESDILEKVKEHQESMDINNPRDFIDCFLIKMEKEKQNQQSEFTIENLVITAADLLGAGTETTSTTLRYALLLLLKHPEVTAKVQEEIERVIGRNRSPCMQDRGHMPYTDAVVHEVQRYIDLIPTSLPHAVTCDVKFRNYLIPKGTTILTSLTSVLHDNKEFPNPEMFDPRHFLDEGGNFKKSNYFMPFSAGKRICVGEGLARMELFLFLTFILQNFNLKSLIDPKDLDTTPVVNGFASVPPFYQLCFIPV
Sequence of CYP1A2 (P05177 whole entry): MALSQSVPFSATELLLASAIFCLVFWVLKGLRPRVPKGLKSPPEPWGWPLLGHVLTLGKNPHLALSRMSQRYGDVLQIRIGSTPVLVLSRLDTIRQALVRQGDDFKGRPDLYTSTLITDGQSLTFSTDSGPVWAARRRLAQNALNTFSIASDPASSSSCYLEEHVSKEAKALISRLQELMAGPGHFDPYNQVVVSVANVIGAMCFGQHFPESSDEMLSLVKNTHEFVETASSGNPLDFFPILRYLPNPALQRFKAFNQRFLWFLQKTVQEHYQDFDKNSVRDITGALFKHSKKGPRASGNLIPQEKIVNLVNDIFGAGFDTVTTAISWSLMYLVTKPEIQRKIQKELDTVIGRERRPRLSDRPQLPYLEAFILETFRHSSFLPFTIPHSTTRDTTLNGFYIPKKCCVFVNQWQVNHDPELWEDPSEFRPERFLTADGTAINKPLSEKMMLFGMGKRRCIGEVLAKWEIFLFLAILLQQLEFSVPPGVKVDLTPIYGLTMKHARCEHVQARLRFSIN

SMILES: CS(=O)(=O)n1cc2c(n1)CN([C@H]1CO[C@H](c3cc(F)ccc3F)[C@@H](N)C1)C2 [Omarigliptin]
- response vs control in vivo at 30 mg/kg ([1]; 2 h): 8.4%
- response vs control in vivo at 30 mg/kg ([1]; 4 h): 7.4%
- response vs control in vivo at 30 mg/kg ([1]; 10 h): 9.1%
- response vs control in vivo at 30 mg/kg ([1]; 24 h): 15.6%
- response vs control in vivo at 30 mg/kg ([1]; 34 h): 20.2%
- response vs control in vivo at 30 mg/kg ([1]; 48 h): 45.5%
- response vs control in vivo at 30 mg/kg ([1]; 58 h): 41.2%
- response vs control in vivo at 30 mg/kg ([1]; 72 h): 58.4%
- response vs control in vivo at 30 mg/kg ([1]; 96 h): 68%
- inhibition at 30 mg/kg ([1]; read-out: inhibitory rate of serum DPP-IV activity in mice): > 70%
- half-life [2]: 4.09 h
- half-life [3]: 21.1 h

SMILES: CS(=O)(=O)c1ccc2c(c1)CN([C@H]1CO[C@H](c3cc(F)ccc3F)[C@@H](N)C1)C2 [Example 4, (2R,3S,5R)-5-(5-methylsulfonylisoindolin-2-yl)-2-(2,5-difluorophenyl)tetrahydro-2H-pyran-3-amine]
- half-life [2]: 4.52 h
- AUC(0-inf) [4]: 45600 ng·h/mL
- Cmax [4]: 4390 ng/mL
- Tmax [4]: 1.67 h
- half-life [4]: 17.1 h
- half-life [3]: 8.26 h
- pIC50 [5]: < 4.60
- pIC50 ([6]; substrate Midazolam, read-out: IC50 in inhibiting CYP Enzyme System 3A4_Mid): < 4.60
- pIC50 ([6]; substrate Testosterone, read-out: IC50 in inhibiting CYP Enzyme System 3A4_Tes): < 4.60
- pIC50 [7]: < 4.60
- pIC50 [8]: < 4.60
- pIC50 [9]: < 4.60
- pIC50 [10]: < 4.60
- pIC50 [11]: < 4.60

SMILES: N[C@H]1C[C@@H](N2Cc3ccc(S(=O)(=O)C4CC4)cc3C2)CO[C@@H]1c1cc(F)ccc1F [Example 9, (2R,3S,5R)-5-(5-cyclopropylsulfonylisoindolin-2-yl)-2-(2,5-difluorophenyl) tetrahydro-2H-pyran-3-amine]
- AUC(0-inf) [4]: 52200 ng·h/mL
- Cmax [4]: 5960 ng/mL
- Tmax [4]: 2 h
- half-life [4]: 32.5 h
